Reference: ChEMBL document CHEMBL4024780, “Discovery of Potent and Selective Allosteric Inhibitors of Protein Arginine Methyltransferase 3 (PRMT3)” (J Med Chem, 2018)

What was measured:
[1] = molecular target: T1, Protein arginine N-methyltransferase 3 (Homo sapiens, UniProt O60678)
Description: Inhibition of PRMT3 (unknown origin) using C-terminally biotinylated histone H4 as substrate in presence of [3H]S-adenosylmethionine by scintillation proximity assay

[2] = molecular target: T1, Protein arginine N-methyltransferase 3; experiment: Inhibition of FLAG-tagged wild type human PRMT3 expressed in HEK293 cells assessed as decrease in exogenous H4R3 dimethylation level using GFP-tagged histone H4 as substrate after 24 hrs by Western blot analysis; format: cell-based
[3] = molecular target: T1, Protein arginine N-methyltransferase 3; experiment: Binding affinity to beta galactosidase fused human PRMT3 (211 to 531 residues) expressed in human A549 cells after 6 hrs by InCELL hunter assay; format: cell-based
[4] = molecular target: T1, Protein arginine N-methyltransferase 3; experiment: Binding affinity to beta galactosidase fused human PRMT3 (211 to 531 residues) expressed in human HEK293 cells after 6 hrs by InCELL hunter assay; format: cell-based

T1 sequence (O60678 whole entry): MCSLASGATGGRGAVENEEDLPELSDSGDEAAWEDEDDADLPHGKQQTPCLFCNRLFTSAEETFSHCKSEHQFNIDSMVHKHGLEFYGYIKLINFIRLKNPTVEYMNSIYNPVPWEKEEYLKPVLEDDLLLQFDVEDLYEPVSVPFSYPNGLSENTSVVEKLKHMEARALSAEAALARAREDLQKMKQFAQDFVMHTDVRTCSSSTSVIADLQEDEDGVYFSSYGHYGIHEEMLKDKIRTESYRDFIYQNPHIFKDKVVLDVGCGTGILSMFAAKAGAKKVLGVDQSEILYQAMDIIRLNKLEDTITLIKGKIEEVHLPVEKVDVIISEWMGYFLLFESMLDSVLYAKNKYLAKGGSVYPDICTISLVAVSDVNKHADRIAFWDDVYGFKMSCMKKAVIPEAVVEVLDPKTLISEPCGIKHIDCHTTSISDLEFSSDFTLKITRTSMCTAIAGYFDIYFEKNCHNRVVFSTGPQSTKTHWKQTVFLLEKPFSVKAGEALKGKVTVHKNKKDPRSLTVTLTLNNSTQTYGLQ

Compound	IC50 [1] [nM]	IC50 [2] [nM]	EC50 [3] [nM]	EC50 [4] [nM]
O=C(NCC(=O)N1CC(F)(F)C(F)(F)C1)Nc1ccc2cnccc2c1	24	240	2700	3100
O=C(NCCc1ccccc1)Nc1ccc2cnccc2c1	833	–	–	–
CN1CCN(C(=O)CNC(=O)Nc2ccc3cnccc3c2)CC1	> 1900	–	–	–
O=C(NCC(=O)N1CCCC1)Nc1cc2ccncc2cc1F	19	–	1600	2700
O=C(NCCC1CC1)Nc1ccc2cnccc2c1	> 8000	–	–	–
O=C(NCC(=O)N1C2CCC1CC2)Nc1ccc2cnccc2c1	46	–	–	–
CON(C)C(=O)CNC(=O)Nc1ccc2cnccc2c1	476	–	–	–

The next lines start with the values.

IC50 [1] [nM]	IC50 [2] [nM]	EC50 [3] [nM]	EC50 [4] [nM]	Compound
22	–	–	–	O=C(NCC(=O)N1C2CCCC1CC2)Nc1ccc2cnccc2c1
158	–	–	–	O=C(CNC(=O)Nc1ccc2cnccc2c1)NC1CC1
477	–	–	–	O=C(CNC(=O)Nc1ccc2cnccc2c1)NC1CCCCC1
84	–	–	–	O=C(NCC(=O)N1CCCCC1)Nc1ccc2cnccc2c1
